What is called Kd is a measure of binding affinity in units of concentration.

The text below walks through data of article PMC12222954 (Nature Communications, 2025).

Series [1] deals with P-gp-mediated ATPase (Homo sapiens, UniProt P08183). The series is described as follows: P-gp-mediated ATPase activity in Caco-2 cells. The following applies: 10 μM GlcN. It is filed as cell-based.
The test system of series [2] is tight junctions between intestinal epithelial cells. The series is described as follows: TEM observation of tight junctions after oral GlcN. The conditions noted are these: GlcN 250 mg/kg, 20 min. Type of series: in vivo, SD rats.
The format of series [3] is in vivo, SD rats. The following applies: Sprague-Dawley, rat, oral.
The subject of series [4] is Caco-2 cells. Type of series: cell-based.
Series [5] is classed as in vivo. The conditions noted are these: abcb1(-/-) mice, GlcN 500 mg/kg.
The target of series [6] is CYP3A4 (Homo sapiens, UniProt P08684). The conditions noted are these: 30 min incubation, 100 μM GlcN.
The target of series [7] is T1, P-gp (Homo sapiens, UniProt P08183). Put plainly: Cellular uptake of Rh123 in P-gp silenced. Type of series: cell-based. The conditions noted are these: P-gp knockdown Caco-2 cells, various concentrations.
The test system of series [8] is A549 cells. Type of series: cell-based.
The target in series [9] is T1, P-gp. It is filed as biochemical. The conditions noted are these: GlcN 10 mM, 5 min pre-incubation.
Series [10] deals with T1, P-gp. The series is described as follows: Transport of paraquat in P-gp recombinant inside-out vesicle model. Type of series: biochemical. The following applies: P-gp inside-out vesicles.
The test system of series [11] is paraquat poisoning. The series is described as follows: Survival of paraquat-poisoned abcb1. Type of series: in vivo. The conditions noted are these: PQ-intoxicated abcb1(-/-) mice, 15 days.
Series [12] has as its system paraquat poisoning. Type of series: in vivo, SD rats. The following applies: for survival rate: PQ-intoxicated rats, oral 2 h post-intoxication, over 15 days.
In series [13] the target is T1, P-gp. Put plainly: Efflux of Rh123 from preloaded Caco-2 cells. Type of series: cell-based. The following applies: Rh123-preloaded Caco-2 cells, vs control.
Series [14] concerns paraquat poisoning. Put plainly: Survival of paraquat-poisoned FVB mice. The conditions noted are these: PQ-intoxicated FVB mice. It is filed as in vivo, wt FVB mice.
Series [15] in a line: Pharmacokinetics of digoxin in wild-type FVB mice with or without GlcN. Type of series: in vivo.
Series [16] is classed as in vivo. The following applies: FVB mice, GlcN 500 mg/kg.
Series [17] can be described thus: Pharmacokinetics of digoxin in abcb1. Type of series: in vivo. The conditions noted are these: abcb1(-/-) mice.
Series [18] has as its system Caco-2 cells. Put plainly: Cell viability, Cell Counting Kit-8. The conditions noted are these: 48 h. It is filed as cell-based.
A short description of series [19]: Intestinal transport rate, everted intestinal sac model. Type of series: in vitro ADME, SD rats. The conditions noted are these: pre-incubation 40 min.
Series [20] in a line: Molar osmotic pressure of solution after adding GlcN or Glu. It is filed as physicochemical. The conditions noted are these: GlcN concentrations below 20 mM.
Series [21] is classed as in vivo. The conditions noted are these: SD rats; for effect on the intestinal absorption of capecitabine: COS 250 mg/kg.
Series [22] deals with T1, P-gp. The series is described as follows: SPR affinity to P-gp in SMALP-MCF-7/ADR liposomes. It is filed as binding.

SMILES strings stand for the structures. Bounds are passed on as bounds.

T1 sequence (P08183 whole entry): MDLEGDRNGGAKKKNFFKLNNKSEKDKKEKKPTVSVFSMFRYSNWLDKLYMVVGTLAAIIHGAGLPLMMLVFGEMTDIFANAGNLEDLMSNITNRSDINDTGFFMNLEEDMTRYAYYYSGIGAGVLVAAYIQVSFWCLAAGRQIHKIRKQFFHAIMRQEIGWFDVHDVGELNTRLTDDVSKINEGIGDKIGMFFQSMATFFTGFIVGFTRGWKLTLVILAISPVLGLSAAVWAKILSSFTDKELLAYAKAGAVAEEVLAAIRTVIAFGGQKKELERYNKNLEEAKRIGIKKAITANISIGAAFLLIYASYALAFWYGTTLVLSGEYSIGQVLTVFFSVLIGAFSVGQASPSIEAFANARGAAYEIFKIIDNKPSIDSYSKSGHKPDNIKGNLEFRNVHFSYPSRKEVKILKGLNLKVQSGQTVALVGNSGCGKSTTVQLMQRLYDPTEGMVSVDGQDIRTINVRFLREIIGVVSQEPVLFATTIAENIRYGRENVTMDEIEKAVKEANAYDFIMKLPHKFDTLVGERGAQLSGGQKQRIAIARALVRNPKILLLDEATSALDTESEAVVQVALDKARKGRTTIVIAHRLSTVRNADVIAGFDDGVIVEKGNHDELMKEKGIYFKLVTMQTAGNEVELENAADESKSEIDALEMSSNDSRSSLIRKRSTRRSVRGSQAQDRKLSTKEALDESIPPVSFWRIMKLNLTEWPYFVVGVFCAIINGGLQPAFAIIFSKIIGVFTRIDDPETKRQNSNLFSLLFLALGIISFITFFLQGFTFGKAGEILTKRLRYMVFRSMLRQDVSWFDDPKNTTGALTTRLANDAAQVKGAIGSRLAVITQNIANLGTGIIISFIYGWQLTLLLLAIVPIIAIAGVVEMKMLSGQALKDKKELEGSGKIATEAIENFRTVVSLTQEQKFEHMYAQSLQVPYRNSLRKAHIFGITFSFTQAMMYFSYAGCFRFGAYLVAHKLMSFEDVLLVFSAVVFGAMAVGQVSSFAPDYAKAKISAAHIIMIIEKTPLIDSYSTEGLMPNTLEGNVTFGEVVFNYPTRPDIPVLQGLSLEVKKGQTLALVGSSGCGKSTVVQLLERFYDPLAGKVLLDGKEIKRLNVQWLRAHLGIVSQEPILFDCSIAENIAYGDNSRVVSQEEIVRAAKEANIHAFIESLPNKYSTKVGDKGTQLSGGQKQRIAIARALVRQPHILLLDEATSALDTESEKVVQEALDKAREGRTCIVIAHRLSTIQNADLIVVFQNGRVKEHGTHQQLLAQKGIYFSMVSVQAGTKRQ
Chain of P-gp-mediated ATPase (P08183 whole entry): as above
Chain of CYP3A4 (P08684 whole entry): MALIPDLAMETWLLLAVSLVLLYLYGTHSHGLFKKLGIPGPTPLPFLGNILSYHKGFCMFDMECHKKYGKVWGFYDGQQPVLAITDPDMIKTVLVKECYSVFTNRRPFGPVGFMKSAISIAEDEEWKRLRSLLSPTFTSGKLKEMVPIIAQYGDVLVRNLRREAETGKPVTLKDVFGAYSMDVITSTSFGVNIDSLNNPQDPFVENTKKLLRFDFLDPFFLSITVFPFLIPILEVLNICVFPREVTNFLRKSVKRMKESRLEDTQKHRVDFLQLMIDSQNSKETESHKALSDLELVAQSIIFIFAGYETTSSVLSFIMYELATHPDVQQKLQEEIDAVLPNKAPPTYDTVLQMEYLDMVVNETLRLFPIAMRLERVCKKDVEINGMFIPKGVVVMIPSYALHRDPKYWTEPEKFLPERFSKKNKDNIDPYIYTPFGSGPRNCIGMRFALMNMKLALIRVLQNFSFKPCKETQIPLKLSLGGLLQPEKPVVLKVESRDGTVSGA

Consider `N[C@H]1C(O)O[C@H](CO)[C@@H](O)[C@@H]1O` (some centres unmarked) [GlcN, Glucosamine], for which, in [1], the “ATPase activity compared to baseline at peak effect” value is reported as “doubled”. For the same compound, the “tight junctions between intestinal epithelial cells before and after oral GlcN” value in series [2] was “remained unchanged”. The “reduction of PQ peak plasma concentration and bioavailability” value in series [3] was ~ 60%. The “effect on resistance to paraquat (cell viability)” value in [4] and in [8] was “significantly enhanced the resistance” throughout. Moreover, the “effect on PQ pharmacokinetics” value in [5] is “no substantial effect”. Also, the “boost of CYP3A4 enzyme activity compared to the control group” value in [6] turned out to be 301%. The “effect on intracellular accumulation level of Rh123” value in series [7] is “hardly had any effect”. The “transport activity relative to the control group” value in [9] is ~ 1.48 times. Besides, in series [10], the “effect on paraquat transport” value is reported as “enhanced its transport”. Besides, the effect on survival result in series [11] is “fails to significantly rescue”. The survival rate in series [12] is listed as 60%. Further, the “effect on fluorescence intensity of intracellular Rh123 / Rh123 transport” value in [13] is given as “notably reduced”. Moreover, the “effect on survival rate” value in [14] is “improves the survival rate”. For the same compound, in [15], the “effect on oral absorption of digoxin” value is “significantly inhibited”. In [16], the “effect on PQ absorption” value was “significantly reduced”. In addition, the “effect on in vivo pharmacokinetic behavior of digoxin” value in series [17] is recorded as “does not affect”. Further, the “concentrations that did not induce significant cytotoxicity” value in [18] is reported as “below 50 mM”. In addition, the “inhibitory effect on intestinal drug transport after prolonged pre-incubation” value in series [19] is on record as “reverses the inhibitory effect”. For the same compound, in series [20], the ΔOsmolality result was “below 20 mOsmol/kg”.
`N[C@H]1[C@H](O[C@H]2[C@H](O)[C@@H](N)[C@H](O[C@H]3[C@H](O)[C@@H](N)[C@H](O[C@H]4[C@H](O)[C@@H](N)[C@H](O[C@H]5[C@H](O)[C@@H](N)C(O)O[C@@H]5CO)O[C@@H]4CO)O[C@@H]3CO)O[C@@H]2CO)O[C@H](CO)[C@@H](O)[C@@H]1O` (some centres unmarked) [COS5, chitopentaose]: in [21], the “effect on the intestinal absorption of capecitabine” value (“effect on the intestinal absorption” for short) is “facilitated”.
For the compound `N[C@H]1[C@H](O[C@H]2[C@H](O)[C@@H](N)C(O)O[C@@H]2CO)O[C@H](CO)[C@@H](O)[C@@H]1O` (some centres unmarked) [COS2, chitobiose], the “effect on the intestinal absorption” value in [21] is reported as “inhibited”.
For `OC[C@H]1OC(O)[C@H](O)[C@@H](O)[C@@H]1O` (some centres unmarked) [glucose, reference compound], the “effect on fluorescence intensity of intracellular Rh123 / Rh123 transport” value in series [13] is on record as “no discernible effect”.
`N[C@H]1[C@H](O[C@H]2[C@H](O)[C@@H](N)[C@H](O[C@H]3[C@H](O)[C@@H](N)C(O)O[C@@H]3CO)O[C@@H]2CO)O[C@H](CO)[C@@H](O)[C@@H]1O` (some centres unmarked) [COS3, chitotriose] showed an equilibrium dissociation constant (Kd) in series [22] of 276 µM. In addition, in series [21], the “AUC of capecitabine, of the control group” value came to 12.65% and the “effect on the intestinal absorption” value is listed as “inhibited”.
For the compound `C[n+]1ccc(-c2cc[n+](C)cc2)cc1` [PQ, N,N’-dimethyl-4,4’-bipyridinium], the “time within which all poisoned rats without administration died” value in series [12] (paraquat 350 mg/kg oral, SD rats) is reported as not above 6 days.
As to `C[C@@H]1C[C@H]2[C@@H]3CCC4=CC(=O)C=C[C@]4(C)[C@@]3(F)[C@@H](O)C[C@]2(C)[C@@]1(O)C(=O)CO` [DEX, dexamethasone, reference compound], the effect on survival result in series [11] is on record as “does not improve the survival rate within 15 days”. The survival rate in series [12] was 30%.
